The results in this text go back to paper PMC4334727 (Circulation, 2014).

One assay concerns the target DUSP3 (Homo sapiens, UniProt P51452). The assay is described as follows: DUSP3 phosphatase inhibition assay. It is filed as biochemical.
For the next assay, the system named is PTP-SL. The assay is described as follows: PTP selectivity profiling. It is filed as biochemical.
The next assay has as its target T1, DUSP22 (Homo sapiens, UniProt Q9NRW4).
T1 sequence (Q9NRW4 1-184): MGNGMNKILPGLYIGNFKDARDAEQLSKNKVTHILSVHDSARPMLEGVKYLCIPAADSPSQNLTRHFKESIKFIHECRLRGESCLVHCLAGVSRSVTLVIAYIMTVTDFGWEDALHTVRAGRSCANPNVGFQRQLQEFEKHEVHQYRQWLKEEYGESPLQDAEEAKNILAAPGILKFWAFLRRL
The assay is described as follows: PTP selectivity profiling. In kind it is biochemical.

For a further assay, the target named is T2, HePTP (Homo sapiens, UniProt P35236).
T2 sequence (P35236 1-360): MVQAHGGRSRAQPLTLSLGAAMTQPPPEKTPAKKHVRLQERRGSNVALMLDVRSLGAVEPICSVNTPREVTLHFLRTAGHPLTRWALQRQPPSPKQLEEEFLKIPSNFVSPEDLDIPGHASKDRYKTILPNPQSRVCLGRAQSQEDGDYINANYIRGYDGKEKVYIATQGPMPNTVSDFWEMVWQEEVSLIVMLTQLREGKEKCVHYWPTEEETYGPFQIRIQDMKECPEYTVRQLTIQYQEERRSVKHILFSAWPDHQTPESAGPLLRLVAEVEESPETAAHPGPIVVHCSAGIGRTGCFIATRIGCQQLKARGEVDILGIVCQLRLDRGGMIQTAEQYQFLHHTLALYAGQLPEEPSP
The assay is described as follows: PTP selectivity profiling. In kind it is biochemical.

In the next assay the target is T3, LYP (Homo sapiens, UniProt Q9Y2R2).
T3 sequence (Q9Y2R2 1-807): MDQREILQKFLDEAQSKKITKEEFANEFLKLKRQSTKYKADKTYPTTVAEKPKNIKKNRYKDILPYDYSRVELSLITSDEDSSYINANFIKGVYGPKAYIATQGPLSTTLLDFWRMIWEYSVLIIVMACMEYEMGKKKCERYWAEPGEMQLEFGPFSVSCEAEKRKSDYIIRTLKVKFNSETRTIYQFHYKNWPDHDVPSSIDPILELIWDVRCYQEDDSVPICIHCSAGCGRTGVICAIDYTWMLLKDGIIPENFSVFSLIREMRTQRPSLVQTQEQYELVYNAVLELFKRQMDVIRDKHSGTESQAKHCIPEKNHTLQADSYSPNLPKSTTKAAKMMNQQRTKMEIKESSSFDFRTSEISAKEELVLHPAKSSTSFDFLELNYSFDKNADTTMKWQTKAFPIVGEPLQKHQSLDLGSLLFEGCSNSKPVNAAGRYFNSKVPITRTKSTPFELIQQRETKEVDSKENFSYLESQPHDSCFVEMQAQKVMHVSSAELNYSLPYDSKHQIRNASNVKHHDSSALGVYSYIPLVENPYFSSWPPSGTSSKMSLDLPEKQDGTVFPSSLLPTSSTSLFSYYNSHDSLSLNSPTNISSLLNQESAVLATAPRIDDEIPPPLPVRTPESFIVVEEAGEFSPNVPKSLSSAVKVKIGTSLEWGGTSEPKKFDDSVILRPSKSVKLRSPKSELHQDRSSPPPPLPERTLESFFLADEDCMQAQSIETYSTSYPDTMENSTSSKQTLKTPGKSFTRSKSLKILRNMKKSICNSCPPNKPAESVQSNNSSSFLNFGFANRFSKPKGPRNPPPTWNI
The assay is described as follows: PTP selectivity profiling. It is filed as biochemical.

A further assay has as its target T4, TCPTP (Homo sapiens, UniProt P17706).
T4 sequence (P17706 1-415): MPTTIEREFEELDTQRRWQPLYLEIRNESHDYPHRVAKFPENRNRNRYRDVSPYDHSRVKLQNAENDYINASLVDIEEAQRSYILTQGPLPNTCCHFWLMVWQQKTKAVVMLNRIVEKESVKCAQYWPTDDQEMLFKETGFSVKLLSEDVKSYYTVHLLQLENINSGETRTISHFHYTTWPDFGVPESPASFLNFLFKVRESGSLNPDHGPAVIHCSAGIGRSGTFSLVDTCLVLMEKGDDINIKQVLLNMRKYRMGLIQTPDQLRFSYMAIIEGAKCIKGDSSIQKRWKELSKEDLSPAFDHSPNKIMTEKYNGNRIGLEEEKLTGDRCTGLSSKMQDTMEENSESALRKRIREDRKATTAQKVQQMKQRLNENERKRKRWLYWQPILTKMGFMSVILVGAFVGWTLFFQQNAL
Nature of the assay: PTP selectivity profiling. In kind it is biochemical.

The target in the next assay is T5, CD45 (Homo sapiens, UniProt P08575).
T5 sequence (P08575 26-1306): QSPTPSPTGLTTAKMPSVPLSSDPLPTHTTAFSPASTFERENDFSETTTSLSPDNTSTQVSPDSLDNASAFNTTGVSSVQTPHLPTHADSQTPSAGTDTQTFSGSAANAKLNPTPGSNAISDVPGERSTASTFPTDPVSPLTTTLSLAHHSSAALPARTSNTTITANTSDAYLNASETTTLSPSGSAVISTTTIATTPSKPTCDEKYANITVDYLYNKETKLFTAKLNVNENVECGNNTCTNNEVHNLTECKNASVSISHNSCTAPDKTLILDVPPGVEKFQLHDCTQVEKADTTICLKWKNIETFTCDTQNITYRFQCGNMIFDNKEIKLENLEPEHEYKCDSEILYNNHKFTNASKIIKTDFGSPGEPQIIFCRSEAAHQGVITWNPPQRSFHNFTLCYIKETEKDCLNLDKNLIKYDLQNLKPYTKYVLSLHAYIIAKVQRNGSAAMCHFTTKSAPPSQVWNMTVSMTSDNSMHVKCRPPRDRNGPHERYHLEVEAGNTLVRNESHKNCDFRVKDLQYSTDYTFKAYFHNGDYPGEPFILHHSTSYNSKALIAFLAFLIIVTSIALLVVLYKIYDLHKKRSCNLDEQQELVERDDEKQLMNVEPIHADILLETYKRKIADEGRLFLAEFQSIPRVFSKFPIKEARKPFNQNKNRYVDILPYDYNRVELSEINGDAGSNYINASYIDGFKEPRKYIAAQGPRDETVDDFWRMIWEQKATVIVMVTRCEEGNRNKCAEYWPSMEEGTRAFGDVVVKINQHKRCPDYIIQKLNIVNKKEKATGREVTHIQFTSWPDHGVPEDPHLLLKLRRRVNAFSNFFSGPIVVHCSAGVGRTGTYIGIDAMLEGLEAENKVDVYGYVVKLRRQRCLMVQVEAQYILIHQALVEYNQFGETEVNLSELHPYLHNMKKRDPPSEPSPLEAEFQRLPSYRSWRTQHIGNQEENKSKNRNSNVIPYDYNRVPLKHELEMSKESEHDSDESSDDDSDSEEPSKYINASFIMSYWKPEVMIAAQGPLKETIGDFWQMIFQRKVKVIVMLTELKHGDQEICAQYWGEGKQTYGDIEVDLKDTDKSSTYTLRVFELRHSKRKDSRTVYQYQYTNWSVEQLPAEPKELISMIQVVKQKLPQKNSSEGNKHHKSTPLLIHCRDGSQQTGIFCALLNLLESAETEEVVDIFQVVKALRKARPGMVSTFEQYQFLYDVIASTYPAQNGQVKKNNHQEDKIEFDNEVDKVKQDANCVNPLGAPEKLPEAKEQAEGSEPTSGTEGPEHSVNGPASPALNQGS
Nature of the assay: PTP selectivity profiling. In kind it is biochemical.

In a further assay the target is LAR (Homo sapiens, UniProt P10586). Nature of the assay: PTP selectivity profiling. It is filed as biochemical.
The target of the next assay is T6, STEP (Homo sapiens, UniProt P54829).
T6 sequence (P54829 1-565): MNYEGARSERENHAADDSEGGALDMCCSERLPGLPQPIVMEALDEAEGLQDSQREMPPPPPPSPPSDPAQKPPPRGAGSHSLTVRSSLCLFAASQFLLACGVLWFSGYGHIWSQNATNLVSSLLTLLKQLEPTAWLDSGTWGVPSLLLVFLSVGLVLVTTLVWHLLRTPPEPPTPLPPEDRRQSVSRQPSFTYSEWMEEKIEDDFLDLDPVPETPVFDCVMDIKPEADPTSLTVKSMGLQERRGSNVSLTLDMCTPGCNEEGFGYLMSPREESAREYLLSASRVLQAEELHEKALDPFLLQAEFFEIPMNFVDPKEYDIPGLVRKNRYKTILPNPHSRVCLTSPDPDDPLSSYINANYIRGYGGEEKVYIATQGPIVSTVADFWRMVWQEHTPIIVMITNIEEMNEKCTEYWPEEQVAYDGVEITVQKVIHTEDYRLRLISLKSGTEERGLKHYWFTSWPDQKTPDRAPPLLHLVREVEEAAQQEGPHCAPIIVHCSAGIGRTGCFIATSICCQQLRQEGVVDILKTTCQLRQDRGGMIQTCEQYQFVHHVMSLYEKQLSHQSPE
Nature of the assay: PTP selectivity profiling. In kind it is biochemical.

In another assay the target is T7, PTP1B (Homo sapiens, UniProt P18031).
T7 sequence (P18031 1-435): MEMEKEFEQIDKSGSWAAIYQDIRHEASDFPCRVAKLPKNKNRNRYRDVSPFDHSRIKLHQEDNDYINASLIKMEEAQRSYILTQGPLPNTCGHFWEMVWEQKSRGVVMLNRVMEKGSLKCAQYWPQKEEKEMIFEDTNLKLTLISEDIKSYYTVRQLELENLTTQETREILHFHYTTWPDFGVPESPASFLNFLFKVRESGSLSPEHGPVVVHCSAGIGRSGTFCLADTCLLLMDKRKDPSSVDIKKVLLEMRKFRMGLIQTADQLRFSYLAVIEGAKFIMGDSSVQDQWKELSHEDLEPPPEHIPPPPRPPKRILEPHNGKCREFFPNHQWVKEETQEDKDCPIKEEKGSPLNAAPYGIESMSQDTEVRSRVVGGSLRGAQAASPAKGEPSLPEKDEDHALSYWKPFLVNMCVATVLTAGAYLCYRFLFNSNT
Nature of the assay: PTP selectivity profiling. It is filed as biochemical.

In another assay the target is T8, DUSP6 (Homo sapiens, UniProt Q16828).
T8 sequence (Q16828 1-381): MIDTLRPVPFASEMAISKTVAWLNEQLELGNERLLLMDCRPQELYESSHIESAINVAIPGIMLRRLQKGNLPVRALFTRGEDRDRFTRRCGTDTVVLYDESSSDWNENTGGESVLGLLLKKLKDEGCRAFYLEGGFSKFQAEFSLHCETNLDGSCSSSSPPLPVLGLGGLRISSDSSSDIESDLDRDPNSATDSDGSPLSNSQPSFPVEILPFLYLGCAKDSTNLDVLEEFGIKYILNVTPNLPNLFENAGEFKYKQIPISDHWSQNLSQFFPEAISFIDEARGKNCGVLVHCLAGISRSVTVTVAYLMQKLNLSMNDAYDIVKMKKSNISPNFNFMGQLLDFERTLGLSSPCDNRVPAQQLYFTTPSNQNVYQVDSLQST
Nature of the assay: PTP selectivity profiling. In kind it is biochemical.

The next assay deals with human platelets. It is filed as cell-based.
Assay [1] concerns DUSP3-deficient platelets. The assay is described as follows: Platelet aggregation in washed platelets from Dusp3-KO mice. To be noted: Dusp3-KO mouse washed platelets, 3.7 μM, pre-incubated 30 min.
Where [2] appears, read: DUSP3, HTS hits, text (Supplemental Table S2).

A value given as a limit tells only on which side of the number the result lay.

Sequence of DUSP3 (P51452 whole entry): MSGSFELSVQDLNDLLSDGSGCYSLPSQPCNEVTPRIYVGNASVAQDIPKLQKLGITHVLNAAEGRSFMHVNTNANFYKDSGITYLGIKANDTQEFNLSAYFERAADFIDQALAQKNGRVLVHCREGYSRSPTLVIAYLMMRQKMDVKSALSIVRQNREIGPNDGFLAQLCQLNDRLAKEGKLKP
Sequence of LAR (P10586 30-1907, species assumed): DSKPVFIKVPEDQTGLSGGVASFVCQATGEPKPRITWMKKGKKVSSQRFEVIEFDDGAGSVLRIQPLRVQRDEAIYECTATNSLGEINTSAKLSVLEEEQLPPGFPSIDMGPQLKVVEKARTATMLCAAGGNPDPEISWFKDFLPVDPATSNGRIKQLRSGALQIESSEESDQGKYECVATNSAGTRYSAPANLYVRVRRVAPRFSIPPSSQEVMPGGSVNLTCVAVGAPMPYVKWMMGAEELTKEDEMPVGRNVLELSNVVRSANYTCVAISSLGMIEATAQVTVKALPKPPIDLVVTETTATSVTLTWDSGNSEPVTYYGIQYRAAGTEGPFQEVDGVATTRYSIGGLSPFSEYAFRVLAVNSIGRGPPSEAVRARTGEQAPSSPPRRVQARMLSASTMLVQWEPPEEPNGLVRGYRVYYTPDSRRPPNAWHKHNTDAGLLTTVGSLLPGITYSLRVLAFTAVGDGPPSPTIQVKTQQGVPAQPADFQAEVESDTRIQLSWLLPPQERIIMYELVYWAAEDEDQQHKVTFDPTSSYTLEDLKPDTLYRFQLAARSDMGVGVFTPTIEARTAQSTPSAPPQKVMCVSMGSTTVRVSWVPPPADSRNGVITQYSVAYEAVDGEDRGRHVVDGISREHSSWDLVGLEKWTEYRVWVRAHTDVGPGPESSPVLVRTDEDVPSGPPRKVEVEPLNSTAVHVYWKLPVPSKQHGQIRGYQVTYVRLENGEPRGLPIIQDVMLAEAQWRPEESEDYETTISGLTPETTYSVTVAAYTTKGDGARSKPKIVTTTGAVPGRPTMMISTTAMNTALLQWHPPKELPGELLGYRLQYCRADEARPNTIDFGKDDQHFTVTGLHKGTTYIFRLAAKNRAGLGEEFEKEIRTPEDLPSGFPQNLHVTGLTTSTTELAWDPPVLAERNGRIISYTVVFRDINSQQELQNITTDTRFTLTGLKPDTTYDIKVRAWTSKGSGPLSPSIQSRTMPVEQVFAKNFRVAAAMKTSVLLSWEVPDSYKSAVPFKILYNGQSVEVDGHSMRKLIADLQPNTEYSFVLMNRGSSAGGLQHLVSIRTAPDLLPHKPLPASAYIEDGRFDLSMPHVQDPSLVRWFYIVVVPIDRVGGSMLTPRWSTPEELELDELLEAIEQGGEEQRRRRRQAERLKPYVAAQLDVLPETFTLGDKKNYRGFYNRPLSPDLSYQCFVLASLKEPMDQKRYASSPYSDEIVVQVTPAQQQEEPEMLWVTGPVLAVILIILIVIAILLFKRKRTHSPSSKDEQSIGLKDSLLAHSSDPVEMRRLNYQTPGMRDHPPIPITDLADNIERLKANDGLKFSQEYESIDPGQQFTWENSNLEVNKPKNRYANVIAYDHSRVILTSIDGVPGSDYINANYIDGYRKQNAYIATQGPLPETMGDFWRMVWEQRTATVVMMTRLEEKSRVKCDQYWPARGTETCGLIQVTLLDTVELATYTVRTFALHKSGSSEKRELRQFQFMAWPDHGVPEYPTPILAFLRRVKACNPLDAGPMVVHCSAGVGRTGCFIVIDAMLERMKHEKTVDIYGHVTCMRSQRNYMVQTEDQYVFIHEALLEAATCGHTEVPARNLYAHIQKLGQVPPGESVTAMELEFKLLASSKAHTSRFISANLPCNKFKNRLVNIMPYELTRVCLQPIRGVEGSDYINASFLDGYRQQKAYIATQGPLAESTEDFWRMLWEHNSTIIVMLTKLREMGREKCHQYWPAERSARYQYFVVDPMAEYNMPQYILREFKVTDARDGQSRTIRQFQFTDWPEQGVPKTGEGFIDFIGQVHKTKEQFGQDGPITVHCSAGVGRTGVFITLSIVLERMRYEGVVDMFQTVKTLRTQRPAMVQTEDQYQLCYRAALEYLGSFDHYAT

Usually IC50 stands for the point on the concentration scale where inhibition reaches its midpoint. Read a high IC50 as a need for much substance. As to `COc1cc(C(=S)N2CCCCC2)ccc1O` [MLS-0103602], the concentration for half-maximal inhibition (IC50) at DUSP3 (setting [2]) amounted to 0.37 µM.
Still for that read-out and setting: next, `COc1ccc(-c2nnc(Nc3nc4c(OC)cccc4s3)o2)cc1` [MLS-0049585]: 2.68 µM.
As to `COc1ccc(-c2nnc(Nc3nc4c(F)cccc4s3)o2)cc1` [MLS-0437605], the 50% inhibitory concentration (IC50) at DUSP3 (DUSP3) was found to be 3.7 µM; in the assay with PTP-SL it was 13 µM; against DUSP22 (DUSP22), 26 µM; against HePTP it was 38 µM; against LYP it was 49 µM; on TCPTP, 55 µM. Besides, the IC50 at CD45, at LAR, on STEP, at PTP1B and at DUSP6 was > 100 µM each time. For the same compound, the “selectivity for DUSP3 over DUSP22” value at DUSP22 (DUSP3 over DUSP22) is 7 fold. For the same compound, the “Tyrosine phosphorylation of immunoprecipitated Syk and PLCγ2” value in the assay on human platelets (human platelets, CRP- or rhodocytin-activated) was “reduced”. Further, in the assay with human platelets (total lysates of human platelets after stimulation with CRP or rhodocytin), the “Global tyrosine phosphorylation (pY) of ~70-kDa band” value is listed as “caused a decrease in pY”. In addition, the “Effect on aggregation of DUSP3-deficient platelets” value in [1] is “only minimally affected aggregation”.
